≈ marks a conversion by molar mass, not a printed value. Where two headings read alike, the source gives them in different places.
What was measured:
PbICLr = PbICLr (Paracoccidioides lutzii, UniProt C1H8F5); assay: Enzymatic activity of recombinant isocitrate lyase (PbICLr); type: biochemical; conditions: for Specific activity PbICLr: control 2.55±0.02
Description: Recombinant PbICL protein was obtained as described by Cruz. Briefly, Pbicl cDNA was inserted into the pET-32a (+) expression vector (Novagen, Inc,). The resulting plasmid was transformed into E. coli BL21 C43 (DE3) cells, and expression was induced at an A600 of 0.6 by the addition of 1 mm (final concentration) isopropyl thio-β-D-galactoside (IPTG) (Sigma-Aldrich). After induction, the cells were incubated for another 2 h at 36°C with shaking at 200 rpm. The cells were harvested by centrifugation at 10,000×g for 5 min at 4°C and resuspended in 1 × NaCl/Pi buffer. After incubation for 30 min with 100 µg/mL lysozyme, the cells were lysed by extensive sonication. The sample was centrifuged at 4°C and 8,000×g for 15 min, and the supernatant, which contained the soluble protein fraction, was collected. His-tagged ICL was purified using the Ni-NTA Spin Kit (Qiagen), and the tags were subsequently removed by the addition of EKMax™ enterokinase (Invitrogen).
(§1) ICL activity was determined according to Cruz et al.. Reactions were performed in 1 mL assay volume containing 2 mM threo-D,L-isocitrate (effective concentration of threo-D-isocitrate 1 mM), 2 mM MgCl2, 10 mM phenylhydrazine HCl, 2 mM dithiothreitol, and 50 mM Tris HCl buffer (pH 7.0). The product glyoxylate-phenylhydrazone was followed at 324 nm using an extinction coefficient of 16.8 mM^−1.cm^−1. One unit of enzyme activity was defined as the formation of 1 µmol of glyoxylate-phenylhydrazone per minute using threo-D,L-isocitrate as the substrate. The specific activities were given as U.mg^−1 protein.
(§2) The compound concentrations were 10 µM, 20 µM, 30 µM, and 40 µM for recombinant PbICL and 30 µM, 40 µM, 50 µM, 60 µM, 70 µM, 80 µM and 90 µM for native PbICL. 3-nitropropinate (50.7 µM) was used as positive control. To the assays of specific activity of PbICL from mycelium, transition, and yeast, the cells were cultured for 10 days on 23°C and 36°C, and were used 18 µg/mL of argentilactone.

[1] = tested on: P. lutzii Pb01 yeast cells; assay: Inhibition and sensitivity assay, P. lutzii Pb01 yeast cells growth (broth macro dilution / spot on MMcM agar); type: cell-based, Paracoccidioides lutzii; conditions: for MIC: read-out: minimal inhibitory concentration; for effect on P. lutzii Pb01 yeast cells growth: glucose or acetate as carbon source, 9 to 72 µg/mL
Description: Inhibition assays were performed by broth macro dilution method according to NCCLS M27-A2 guidelines with modifications. For the inhibition assays, yeast cells in their exponential growth phase were kept on solid MMcM for seven days at 36°C and inoculated in liquid MMcM medium. Sterile stock solution of the argentilactone, reduced argentilactone, epoxy argentilactone and diol argentilactone were freshly prepared in water and dimethyl sulfoxide (DMSO). Serial dilutions from stock solutions were prepared with sterile MMcM medium as the diluent, to yield final compound concentrations ranging from 9 to 72 µg/mL. Drug-free controls were included. Inocula concentrations were determined spectrophotometrically at 520 nm. The mixture was vortexed to disperse the aggregated cells. P. lutzii Pb01 was grown at 36°C, 200 rpm shaking for 10 days. For the sensitivity assay, 7-day-old P. lutzii Pb01 yeast cells were grown in liquid MMcM overnight at 36°C. Samples containing 10^5, 10^4, and 10^3 cells were spotted onto MMcM agar medium supplemented with argentilactone, reduced argentilactone, epoxy argentilactone, or diol argentilactone at concentrations of 9 µg/mL, 18 µg/mL, 36 µg/mL, or 72 µg/mL. […] The plates were incubated for 6 days at 36°C before being photographed.

PbICLc = PbICLc (Paracoccidioides lutzii, UniProt C1H8F5); assay: Enzymatic activity of native PbICL in crude protein extract of yeast cells (PbICLc); type: biochemical; conditions: for inhibition of native PbICL activity: crude extract of yeast cells; for Specific activity PbICLc Acetate: crude extract of yeast cells grown on acetate, control 0.080±0.004; for Specific activity PbICLc Acetate / Specific activity PbICLc Glucose / IC50 / IC50 PbICLc Acetate / IC50 PbICLc Glucose: N.I. = No inhibition found; for Specific activity PbICLc Glucose: crude extract of yeast cells grown on glucose, control 0.010±0.002; for IC50 / IC50 PbICLc Acetate / IC50 PbICLc Glucose: crude extract
Description: P. lutzii Pb01 yeast cells grown for 24 h in liquid minimal MMcM medium containing glucose or acetate as the carbon source were centrifuged for 5 min at 2.500×g. The proteins were extracted as previously described. The cells were washed with sterilized water and frozen in liquid nitrogen. The material was ground to a fine powder; resuspended in 500 µL of 50 mM potassium phosphate buffer (pH 7.0) supplemented with 1 mM dithiothreitol (DTT) and vigorously mixed with glass beads for 20 min at 4°C. The cell debris was removed by centrifugation for 15 min at 4°C and 5,000×g, and the supernatant was centrifuged for 15 min at 4°C and 12,000×g. The cell-free extract was used for the ICL activity assays or stored at −20°C for further analyses. Quantification of the protein content was performed according to Bradford.
as §1, §2

[2] = tested on: P. lutzii Pb01 differentiation from mycelium to yeast; assay: Transition from mycelium to yeast (dimorphism); type: cell-based, Paracoccidioides lutzii; conditions: glucose or acetate; 10 days at 36°C
Description: The differentiation from mycelium to yeast was performed in Mc Veigh and Morton (MMcM) liquid minimal medium containing glucose (0.11 M) or acetate (0.28 M) as the carbon source. The cultivation temperature was changed from 23°C to 36°C to allow the mycelium to yeast transition. The cells were previously grown in liquid medium for 18 h before changing the incubation temperature, which was maintained for 10 days. The appearance of yeast cells was monitored using a Neubauer chamber.

[3] = tested on: P. lutzii Pb01 yeast cells; assay: Viability assay of P. lutzii Pb01 yeast cells (Neubauer chamber); type: cell-based, Paracoccidioides lutzii; conditions: 18 µg/mL, after 6 h of incubation
Description: P. lutzii Pb01 yeast cells were sub-cultured every 7 days in solid Fava-Netto’s medium at 36°C. For viability experiments, yeast cells were kept in liquid McVeigh Morton (MMcM) chemically defined medium for 6 h at 36°C and viability of the cells determined by counting viable cells in a Neubauer chamber. All experiments were performed in triplicate.

PbICL = PbICL activity from phases of P. lutzii Pb01 cultured with argentilactone; type: biochemical, Paracoccidioides lutzii; conditions: for PbICL specific activity: treated with 18 µg/mL; for inhibition of PbICL: 18 µg/mL, over the phases
Description: as §1, §2

MRC5 cells = assay: Toxicity to MRC5 cells; type: cell-based; conditions: 18 µg/mL; data not shown
dermatophytes = tested on: dermatophytes; set-up: method as in doi:10.1590/S0103-50532004000500023; conditions: cited from earlier work
[4] = recombinant enzyme, N.I. = No inhibition found
[5] = read-out: IC50 PbICLc Acetate, acetate
[6] = read-out: IC50 PbICLc Glucose, glucose

PbICLr, sequence (C1H8F5 entry or part of it): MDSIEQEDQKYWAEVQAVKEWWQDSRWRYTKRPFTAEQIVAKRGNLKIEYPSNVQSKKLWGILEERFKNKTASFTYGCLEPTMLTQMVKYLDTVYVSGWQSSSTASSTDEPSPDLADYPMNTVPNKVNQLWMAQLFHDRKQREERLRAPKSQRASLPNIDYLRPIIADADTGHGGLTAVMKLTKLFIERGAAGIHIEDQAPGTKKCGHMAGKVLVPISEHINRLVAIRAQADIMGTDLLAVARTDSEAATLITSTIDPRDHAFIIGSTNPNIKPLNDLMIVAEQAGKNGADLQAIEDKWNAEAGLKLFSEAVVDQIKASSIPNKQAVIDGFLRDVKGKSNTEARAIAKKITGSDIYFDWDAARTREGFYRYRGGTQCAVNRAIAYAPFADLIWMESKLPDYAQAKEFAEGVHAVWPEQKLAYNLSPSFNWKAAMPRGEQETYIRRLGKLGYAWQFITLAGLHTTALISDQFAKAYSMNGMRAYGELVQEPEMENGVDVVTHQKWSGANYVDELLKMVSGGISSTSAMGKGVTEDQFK
PbICLc, sequence (C1H8F5 entry or part of it): as above

Compound	IC50 (PbICLr) [µM]	Specific activity PbICLr (PbICLr; [4])	MIC ([1]; acetate as carbon source) [µg/mL]	MIC ([1]; glucose as carbon source) [µg/mL]	effect on P. lutzii Pb01 yeast cells growth [1]	inhibition of native PbICL activity (PbICLc)	Specific activity PbICLc Acetate (PbICLc)	Specific activity PbICLc Glucose (PbICLc)	IC50 (PbICLc; [5]) [µM]	IC50 (PbICLc; [6]) [µM]	inhibition of the dimorphism mycelium to yeast [2]	effect against PbICLr (PbICLr; recombinant enzyme)	IC50 PbICLr (PbICLr; [4])	IC50 PbICLc Acetate (PbICLc; acetate)	IC50 PbICLc Glucose (PbICLc; glucose)	further results
CCCCCCCC1CC=CC(=O)O1 (stereo in doubt) [Reduced argentilactone, 2H-Pyran-2-one, 6-heptyl-5,6-dihydro-, (6R)]	30.2 ± 0.04	0.93±0.01 U/mg	9 (≈ 45.9 µM)	18 (≈ 91.7 µM)	dose-dependent inhibition	inhibited	0.067±0.004 U/mg	0.009±0.003 U/mg	60 ± 0.02	85 ± 0.01	the effect was reduced					
CCCCC/C=C\[C@H]1CC=CC(=O)O1 [Argentilactone, 2H-Pyran-2-one, 6-(1-heptenyl)-5,6-dihydro-, [R-(Z)]]	28.8 ± 0.01	0.86±0.01 U/mg	9 (≈ 46.3 µM)	18 (≈ 92.7 µM)	dose-dependent inhibition	inhibited	0.040±0.001 U/mg		50 ± 0.03	80 ± 0.02	dose-dependent inhibition					decrease of viability [3]: approximately 15%; PbICL specific activity (PbICL; Mycelium to Yeast, Acetate): 0.055±0.003 U; PbICL specific activity (PbICL; Mycelium to Yeast, Glucose): 0.055±0.001 U; PbICL specific activity (PbICL; Mycelium, Acetate): 0.055±0.005 U; PbICL specific activity (PbICL; Mycelium, Glucose): T 0.045±0.001 U; PbICL specific activity (PbICL; Yeast, Acetate): 0.120±0.003 U; PbICL specific activity (PbICL; Yeast, Glucose): 0.085±0.001 U; inhibition of PbICL (PbICL; acetate): ~45%; inhibition of PbICL (PbICL; glucose): ~30%; toxicity to MRC5 cells (MRC5 cells): not toxic; minimal inhibitory concentration (dermatophytes): 31 µg/mL (≈ 160 µM)
O=C(O)CC[N+](=O)[O-] [3-Nitropropionate, reference compound]		0.81±0.01 U/mg					0.036±0.002 U/mg	0.008±0.001 U/mg								IC50 (PbICLr; recombinant enzyme, N.I. = No inhibition found, read-out: IC50 PbICLr): 25.7 ± 0.01 µM; IC50 (PbICLc; acetate, read-out: IC50 PbICLc Acetate): 45.4 ± 0.01 µM; IC50 (PbICLc; glucose, read-out: IC50 PbICLc Glucose): 76 ± 0.01 µM
CCCCCC1OC1C1CC=CC(=O)O1 [Epoxi argentilactone, 2H-Pyran-2-one, 5,6-dihydro-6-[(2S, 3S)-3-pentyl-2-oxiranyl] -, (6R)]		N.I. ^**			very small effect	No inhibition	N.I. ^**	N.I. ^**			did not interfere	no effect	N.I. ^**	N.I. ^**	N.I. ^**	
CCCCC[C@@H](O)[C@H](O)[C@H]1CC=CC(=O)O1 [Diol argentilactone, 2H-Pyran-2-one, 6-(1,2-dihydroxyheptyl)-5,6-dihydro-, [6R-(1S, 2R)]]		N.I. ^**			very small effect	No inhibition	N.I. ^**	N.I. ^**			did not interfere	no effect	N.I. ^**	N.I. ^**	N.I. ^**	

— article PMC3994062, “Inhibition of Paracoccidioides lutzii Pb01 Isocitrate Lyase by the Natural Compound Argentilactone and Its Semi-Synthetic Derivatives” (PLoS ONE, 2014)
